Laboratory results reported in ChEMBL document CHEMBL1201862, “PubChem BioAssay data set” (2004).
The source made the active and inactive calls.

Columns and labels:
[1] = HepG2 cell cytotoxicity, dose response, cytotoxicity control for Shn3 inhibitor project, CellTiter-Glo, cherry-picked (AID 624134); type: functional, cell-based
[2] = biological target: T1, Corticotropin-releasing factor receptor 2/Corticotropin-releasing factor-binding protein (Homo sapiens, UniProt P24387+Q13324); assay: activators of CRF receptor 2 with binding protein – uHTS hits, confirmation (AID 602473); type: functional; conditions: read-out: EC50_Mean
T1 sequence (Q13324 whole entry): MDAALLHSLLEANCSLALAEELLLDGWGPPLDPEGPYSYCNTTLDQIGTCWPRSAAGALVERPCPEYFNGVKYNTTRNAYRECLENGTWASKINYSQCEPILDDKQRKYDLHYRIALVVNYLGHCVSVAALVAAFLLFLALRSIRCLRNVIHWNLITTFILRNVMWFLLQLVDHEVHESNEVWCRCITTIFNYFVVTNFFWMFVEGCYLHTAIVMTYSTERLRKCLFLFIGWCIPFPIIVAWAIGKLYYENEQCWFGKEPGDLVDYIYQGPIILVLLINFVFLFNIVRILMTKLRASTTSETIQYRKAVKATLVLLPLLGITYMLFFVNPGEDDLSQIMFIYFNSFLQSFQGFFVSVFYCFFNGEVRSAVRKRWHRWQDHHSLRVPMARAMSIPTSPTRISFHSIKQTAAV
T1 sequence (P24387 whole entry): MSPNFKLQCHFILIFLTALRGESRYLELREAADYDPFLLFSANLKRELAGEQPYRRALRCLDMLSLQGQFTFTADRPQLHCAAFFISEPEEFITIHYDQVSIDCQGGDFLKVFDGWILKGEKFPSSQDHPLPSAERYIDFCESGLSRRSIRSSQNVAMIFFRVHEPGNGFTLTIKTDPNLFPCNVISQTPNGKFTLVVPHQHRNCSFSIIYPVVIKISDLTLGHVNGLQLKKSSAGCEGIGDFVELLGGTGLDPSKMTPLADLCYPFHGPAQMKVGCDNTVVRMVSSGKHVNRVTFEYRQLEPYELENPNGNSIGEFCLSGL

[3] = control 3'UTR Renilla luciferase suppression, dose response, counter-screen for Shn3 inhibitor project, cell-based, Clone20-Shn3RL, cherry-picked (AID 624133); type: functional
[4] = Shn3 3'UTR reporter inhibitors, dose response, cell-based, Clone20 osteoblasts, firefly luciferase, cherry-picked (AID 624132); type: functional;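 further: firefly luciferase luminescence from reporter carrying the Shn3 3'UTR in osteoblasts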
[5] = microbe, parasite or virus in culture; type: functional; conditions: Mycobacterium tuberculosis
Cytochrome P450 1A2 = biological target: T2, Cytochrome P450 1A2 (Homo sapiens, UniProt P05177);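 further: PubChem cytochrome P450 panel assay, CYP1A2 panel member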
T2 sequence (P05177 whole entry): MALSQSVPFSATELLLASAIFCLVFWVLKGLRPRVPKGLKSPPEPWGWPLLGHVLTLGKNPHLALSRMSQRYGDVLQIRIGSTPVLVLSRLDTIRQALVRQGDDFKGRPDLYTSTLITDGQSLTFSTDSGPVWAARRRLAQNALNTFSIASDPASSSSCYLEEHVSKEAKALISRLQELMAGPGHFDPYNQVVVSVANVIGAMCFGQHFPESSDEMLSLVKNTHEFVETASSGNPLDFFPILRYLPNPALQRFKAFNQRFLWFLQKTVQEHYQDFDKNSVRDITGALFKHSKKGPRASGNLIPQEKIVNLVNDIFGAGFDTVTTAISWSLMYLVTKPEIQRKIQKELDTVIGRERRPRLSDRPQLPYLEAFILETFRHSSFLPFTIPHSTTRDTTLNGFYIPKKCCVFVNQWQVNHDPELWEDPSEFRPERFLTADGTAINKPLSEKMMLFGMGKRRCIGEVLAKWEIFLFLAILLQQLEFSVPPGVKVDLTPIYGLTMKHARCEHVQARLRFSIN

Cytochrome P450 3A4 = Cytochrome P450 3A4 (Homo sapiens, UniProt P08684);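 further: CYP3A4 tested as one member of a cytochrome P450 panel screen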
Cytochrome P450 3A4, sequence (P08684 whole entry): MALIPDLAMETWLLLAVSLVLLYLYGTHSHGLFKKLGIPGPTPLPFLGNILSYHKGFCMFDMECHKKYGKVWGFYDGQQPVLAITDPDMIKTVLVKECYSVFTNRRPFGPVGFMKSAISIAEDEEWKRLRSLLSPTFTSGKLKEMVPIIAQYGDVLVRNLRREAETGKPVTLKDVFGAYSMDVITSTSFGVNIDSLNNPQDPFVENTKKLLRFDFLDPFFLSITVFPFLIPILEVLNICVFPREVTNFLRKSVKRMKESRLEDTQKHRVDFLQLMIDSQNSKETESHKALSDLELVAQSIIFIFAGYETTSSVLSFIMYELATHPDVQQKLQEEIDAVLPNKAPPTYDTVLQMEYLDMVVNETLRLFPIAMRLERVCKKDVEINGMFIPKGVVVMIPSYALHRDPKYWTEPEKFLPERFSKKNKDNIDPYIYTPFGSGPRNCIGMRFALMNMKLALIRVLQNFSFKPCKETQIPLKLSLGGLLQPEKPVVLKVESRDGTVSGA

[6] = inhibitors of intracellular T. cruzi replication, confirmation, NIH3T3 host cells, beta-gal luminescence (AID 2044); type: functional, cell-based;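 further: intracellular parasites grown in NIH/3T3 mouse fibroblasts as host cells; luminescent beta-galactosidase reporter signal from transgenic T. cruzi replicating inside host cells; inhibitors lower the luminescence signal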
[7] = cytotoxicity toward NIH3T3 fibroblasts, dose response, counter-screen, cell-based, ATP luminescence, mouse fibroblasts (AID 2010); type: functional;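 further: cells exposed to compound for about 90 hours before reading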
[8] = biological target: T3, Heat shock factor protein 1 (Mus musculus, UniProt P38532); assay: HSF1 potentiators in luciferase reporter cells, confirmation, cell-based, NIH3T3, luminescence, dose retest (AID 435004); type: functional;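 further: stress induced by proteasome inhibitor MG132 added 30 min after compound; luciferase reporter driven by HSF1 response element in NIH3T3 cells; actives raise luminescence as potentiators of the MG132 stress response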
T3 sequence (P38532 whole entry): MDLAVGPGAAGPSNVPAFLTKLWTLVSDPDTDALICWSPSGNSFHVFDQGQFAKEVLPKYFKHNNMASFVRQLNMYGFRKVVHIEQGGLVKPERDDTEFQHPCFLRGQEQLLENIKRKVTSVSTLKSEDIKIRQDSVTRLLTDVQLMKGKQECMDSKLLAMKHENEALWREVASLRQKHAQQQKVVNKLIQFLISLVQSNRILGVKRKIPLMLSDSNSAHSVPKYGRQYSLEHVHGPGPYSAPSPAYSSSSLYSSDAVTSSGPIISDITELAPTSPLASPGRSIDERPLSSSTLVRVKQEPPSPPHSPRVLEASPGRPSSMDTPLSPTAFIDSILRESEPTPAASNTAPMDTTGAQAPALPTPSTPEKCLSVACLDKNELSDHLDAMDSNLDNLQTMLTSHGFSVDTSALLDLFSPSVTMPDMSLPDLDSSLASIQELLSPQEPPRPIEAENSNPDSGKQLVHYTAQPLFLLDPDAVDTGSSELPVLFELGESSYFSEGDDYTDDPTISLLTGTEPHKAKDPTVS

Cytochrome P450 2C19 = Cytochrome P450 2C19 (Homo sapiens, UniProt P33261); assay: Cytochrome panel assay with activity outcomes. Panel member name: p450-cyp2c19 Compounds with AC50 equal or less than 10 uM are considered active; type: functional
Cytochrome P450 2C19, sequence (P33261 whole entry): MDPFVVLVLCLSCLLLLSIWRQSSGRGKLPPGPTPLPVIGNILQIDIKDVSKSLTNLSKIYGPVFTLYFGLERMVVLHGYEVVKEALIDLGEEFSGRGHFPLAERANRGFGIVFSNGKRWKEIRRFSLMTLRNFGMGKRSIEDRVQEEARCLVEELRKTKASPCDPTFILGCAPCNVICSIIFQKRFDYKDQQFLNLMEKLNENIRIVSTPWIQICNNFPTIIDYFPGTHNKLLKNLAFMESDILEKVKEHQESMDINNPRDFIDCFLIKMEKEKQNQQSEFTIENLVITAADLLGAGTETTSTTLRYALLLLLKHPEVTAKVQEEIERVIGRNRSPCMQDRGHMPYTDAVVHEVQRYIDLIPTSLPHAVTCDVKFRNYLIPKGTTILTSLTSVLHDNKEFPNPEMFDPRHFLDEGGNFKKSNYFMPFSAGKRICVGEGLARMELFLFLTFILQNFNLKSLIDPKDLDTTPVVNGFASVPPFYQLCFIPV

[9] = biological target: FAD-linked sulfhydryl oxidase ALR (Homo sapiens, UniProt P55789); assay: inhibitors of human ALR sulfhydryl oxidase, dose response, biochemical, H2O2 detection, luminescence, cherry-pick (AID 493248)
FAD-linked sulfhydryl oxidase ALR, sequence (P55789 whole entry): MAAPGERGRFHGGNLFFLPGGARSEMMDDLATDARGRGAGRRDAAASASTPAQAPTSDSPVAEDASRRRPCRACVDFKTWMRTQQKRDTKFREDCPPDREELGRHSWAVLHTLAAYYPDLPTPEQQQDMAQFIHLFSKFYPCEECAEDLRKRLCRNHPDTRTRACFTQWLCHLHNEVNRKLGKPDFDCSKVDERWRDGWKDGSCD

Cytochrome P450 2C9 = Cytochrome P450 2C9 (Homo sapiens, UniProt P11712)
Cytochrome P450 2C9, sequence (P11712 whole entry): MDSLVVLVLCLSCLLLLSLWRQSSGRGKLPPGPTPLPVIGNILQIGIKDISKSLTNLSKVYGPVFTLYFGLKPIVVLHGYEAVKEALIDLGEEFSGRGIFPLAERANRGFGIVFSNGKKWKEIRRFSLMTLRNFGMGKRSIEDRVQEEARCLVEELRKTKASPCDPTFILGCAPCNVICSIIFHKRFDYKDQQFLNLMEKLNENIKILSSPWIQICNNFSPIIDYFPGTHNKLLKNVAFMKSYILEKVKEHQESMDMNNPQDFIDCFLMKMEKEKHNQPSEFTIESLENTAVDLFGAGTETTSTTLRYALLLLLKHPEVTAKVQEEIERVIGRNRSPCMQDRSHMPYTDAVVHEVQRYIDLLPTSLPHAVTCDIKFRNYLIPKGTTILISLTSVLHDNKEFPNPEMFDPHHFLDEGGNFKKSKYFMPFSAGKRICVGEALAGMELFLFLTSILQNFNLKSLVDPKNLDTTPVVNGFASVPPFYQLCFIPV

[10] = biological target: Luciferin 4-monooxygenase (Photinus pyralis, UniProt P08659); assay: firefly luciferase enzyme inhibitors, dose response, biochemical, luminescence (AID 1891)
Luciferin 4-monooxygenase, sequence (P08659 whole entry): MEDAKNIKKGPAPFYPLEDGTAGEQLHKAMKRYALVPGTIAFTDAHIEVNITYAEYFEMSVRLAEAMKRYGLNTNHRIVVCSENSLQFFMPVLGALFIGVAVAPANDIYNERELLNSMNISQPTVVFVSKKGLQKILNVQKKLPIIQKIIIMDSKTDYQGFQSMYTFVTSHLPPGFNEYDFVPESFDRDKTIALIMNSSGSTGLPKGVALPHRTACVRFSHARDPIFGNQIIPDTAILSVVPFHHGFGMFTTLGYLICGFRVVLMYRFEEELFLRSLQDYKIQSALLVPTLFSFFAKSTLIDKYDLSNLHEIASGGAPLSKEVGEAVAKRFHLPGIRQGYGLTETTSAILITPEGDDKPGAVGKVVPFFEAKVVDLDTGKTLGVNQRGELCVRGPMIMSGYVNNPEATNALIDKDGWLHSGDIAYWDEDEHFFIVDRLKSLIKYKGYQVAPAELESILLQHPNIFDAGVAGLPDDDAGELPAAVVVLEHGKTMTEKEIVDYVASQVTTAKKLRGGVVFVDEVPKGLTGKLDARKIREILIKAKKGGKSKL

[11] = Luminescence Cell-Based Dose Confirmation HTS to Identify Inhibitors of Platelet Dense Granule Release. [Related pubchem assays: 1663 (Primary HTS), 1678 (Summary of Project)]; type: functional
[12] = growth suppression of beta-catenin-knockout colon cells, dose response, cell-based, HCT116, human colon tumor (AID 1045); type: functional;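 further: HCT116 colon tumor cells with beta catenin knocked out; cells exposed to compound for 60 hours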
[13] = growth suppression of PTEN-null colon cells, dose response, cell-based, HCT116 PTEN knockout (AID 1047); type: functional;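 further: HCT116 colon tumor cells with PTEN knocked out; cells exposed to compound for 60 hours before readout; potency for loss of cell viability measured by luminescence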
[14] = biological target: T4, Zinc finger protein mex-5 (Caenorhabditis elegans, UniProt Q9XUB2); assay: MEX-5/TCR-2 RNA interaction inhibitors, dose response, biochemical, C. elegans, fluorescence polarization (AID 1960)
T4 sequence (Q9XUB2 whole entry): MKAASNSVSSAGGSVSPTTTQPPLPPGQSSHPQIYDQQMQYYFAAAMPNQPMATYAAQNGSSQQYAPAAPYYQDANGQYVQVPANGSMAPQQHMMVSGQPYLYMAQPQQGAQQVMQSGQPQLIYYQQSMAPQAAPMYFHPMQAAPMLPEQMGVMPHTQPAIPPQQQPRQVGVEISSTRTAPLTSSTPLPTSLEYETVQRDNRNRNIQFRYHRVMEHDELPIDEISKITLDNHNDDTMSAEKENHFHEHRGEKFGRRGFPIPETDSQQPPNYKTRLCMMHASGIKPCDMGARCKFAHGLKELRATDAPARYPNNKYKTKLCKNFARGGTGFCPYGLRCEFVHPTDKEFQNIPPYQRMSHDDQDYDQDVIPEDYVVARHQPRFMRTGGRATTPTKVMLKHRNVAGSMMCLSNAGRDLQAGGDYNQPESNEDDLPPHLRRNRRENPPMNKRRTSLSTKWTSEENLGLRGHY

[15] = biological target: T5, RNA-binding protein pos-1 (Caenorhabditis elegans, UniProt G5EF15); assay: inhibitors of POS-1/mex-3 RNA binding, dose response, biochemical, fluorescence polarization (AID 1964);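 further: purified POS-1 fused to maltose binding protein made in E. coli; potency of compounds blocking POS-1 binding to fluorescent RNA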
T5 sequence (G5EF15 whole entry): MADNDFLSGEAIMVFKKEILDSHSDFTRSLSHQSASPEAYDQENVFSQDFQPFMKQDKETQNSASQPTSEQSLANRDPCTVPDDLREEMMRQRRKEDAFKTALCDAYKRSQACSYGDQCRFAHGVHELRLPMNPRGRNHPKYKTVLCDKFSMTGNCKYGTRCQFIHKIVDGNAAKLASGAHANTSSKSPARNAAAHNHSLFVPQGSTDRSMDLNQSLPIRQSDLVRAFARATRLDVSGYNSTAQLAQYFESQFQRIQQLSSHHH

CC(C)Cc1ccc(C(C)C(=O)Nc2ccccc2O)cc1 (stereo not drawn)
AC50 [1]: 6.63 µM (active)
EC50 [2]: 5.7 µM (active)
AC50 [3]: 4.26 µM (active)
AC50 [4]: 1.89 µM (active)

Cc1sc2ncnc(Oc3ccc(-n4ccnc4)cc3)c2c1C
CC50 [5]: > 40 µM (active)

Cc1cc(O)c(C(C)C)cc1NC(=O)Nc1cccc2ccccc12
AC50 (Cytochrome P450 1A2): 0.794 µM (inconclusive)
AC50 (Cytochrome P450 3A4): 3.16 µM (inconclusive)

COc1ccc(NC(=O)c2[nH]c(C)c(C(C)=O)c2C)cc1S(=O)(=O)Nc1ccc(Br)cc1
EC50 [6]: 1.12 µM (active)
EC50 [7]: > 60 µM (not active)
EC50 [8]: > 260 µM (inactive)

COc1cc(OC)cc(C(=O)NCC(=O)OC2CCOC2=O)c1 (stereo not drawn)
AC50 (Cytochrome P450 1A2): 0.0316 µM (inconclusive)
AC50 (Cytochrome P450 2C19): inconclusive

O=C(NNS(=O)(=O)c1ccc(F)cc1)c1cc2ccccc2cc1O
AC50 [9]: 4.07 µM (active)

Cc1nn(C)c(Cl)c1S(=O)(=O)N[C@@H](c1ccccc1)[C@]1(C)C[C@H]1[C@@H](C)C(=O)Nc1ccc2ccccc2c1
AC50 (Cytochrome P450 1A2): 5.01 µM (inconclusive)
AC50 (Cytochrome P450 2C9): 6.31 µM (inconclusive)

COc1ccccc1NC(=O)c1cc([N+](=O)[O-])ccc1N1CCOCC1
EC50 [10]: > 112 µM (not active)
EC50 [11]: > 112 µM (not active)

COc1ccc(N2CCN(C(=O)c3ccc(SC)cc3OC)CC2)cc1
AC50 [9]: 6.05 µM (active)

FC(F)(F)c1cccc(NC(S)=NCc2ccccn2)c1
EC50 [8]: > 260 µM (inactive)

Cc1ccccc1-c1cncnc1NC1CCNCC1
AC50 (Cytochrome P450 1A2): 0.00794 µM (inconclusive)

CCOC(=O)c1sc(NN=C2C(=O)CC(C)(C)CC2=O)c(C(=O)OCC)c1C
EC50 [10]: > 112 µM (not active)
EC50 [11]: 20.4 µM (active)

Cc1ccc(NC(=O)C2CCN(S(=O)(=O)c3ccc4c(c3)NC(=O)C(C)S4)CC2)cc1C (stereo not drawn)
AC50 [1]: 68.3 µM (active)
AC50 [3]: 6.43 µM (active)
AC50 [4]: 2.61 µM (active)

CC(C)C(=O)C(C)(C)CCc1ccccn1
AC50 (Cytochrome P450 1A2): 2.51 µM (inconclusive)

N#CCCn1cc(/C=C2\NC(=S)N(c3ccccc3)C2=O)c(-c2ccc(-c3ccccc3)cc2)n1
CC50 [5]: 38.2 µM (active)

Nc1ncncc1-c1ccc([N+](=O)[O-])cc1
AC50 (Cytochrome P450 1A2): 28.2 µM (inconclusive)
AC50 (Cytochrome P450 3A4): 12.6 µM (inconclusive)
AC50 (Cytochrome P450 2C19; read-out: AC50): 10 µM (inconclusive)

CC1CC(C)(C)N(C(=O)NC2CCCCC2)c2ccccc21 (stereo not drawn)
EC50 [8]: > 260 µM (inactive)

Cc1ccc(S(=O)(=O)c2cccc(S(=O)(=O)N3CCCC3)c2)cc1S(=O)(=O)N1CCCC1
EC50 [12]: 28.3 µM (active)
EC50 [13]: 35.7 µM (active)

Cn1c(=O)n(C)c2cc(S(=O)(=O)NCc3ccccc3)ccc21
EC50 [10]: > 112 µM (not active)
EC50 [11]: > 112 µM (not active)

Cc1cc(C)n2cc(COc3ccc4ccccc4c3)nc2n1
EC50 [8]: > 260 µM (inconclusive)

COc1ccc2c(c1)N(CC[C@H]1CCCCN1C)c1ccccc1S2
AC50 (Cytochrome P450 1A2): 1.26 µM (inconclusive)

O=C(NN=C1CCCC1)c1cc(-c2ccccc2)[nH]n1
AC50 [9]: 16.9 µM (active)

O=C(Nc1ccc(F)cc1)Nc1ccccc1F
EC50 [10]: 6.85 µM (active)
EC50 [11]: 12.1 µM (active)

COC(=O)C1=C(C)N=C2SC(C#N)=C(N)N2C1c1cccc(OC)c1 (stereo not drawn)
EC50 [14]: > 300 µM (not active)
EC50 [10]: > 112 µM (not active)
EC50 [11]: > 112 µM (not active)
EC50 [15]: > 300 µM (not active)

CC1(CCC(=O)N2CCCC(Nc3ccc(F)cc3)C2)CC1 (stereo not drawn)
AC50 [9]: 5.27 µM (active)

Cc1ccc(NC2CCCN(C(=O)c3cn4cccc(C)c4n3)C2)cc1C (stereo not drawn)
AC50 [9]: 9.91 µM (active)

COC(=O)N1CCC[C@@]2(CCN(C(=O)Nc3ccccc3)C2)C1
AC50 (Cytochrome P450 1A2): 12.6 µM (inconclusive)

CCNC(=S)N/N=C/c1ccc(-c2ccccc2)o1
EC50 [8]: > 260 µM (inactive)

BrC(/C=C\c1ccccc1)=N/Nc1nc(N2CCOCC2)nc(N2CCOCC2)n1
EC50 [8]: > 260 µM (inactive)

COc1ccc(/C=N/NC(=O)c2ccncc2)cc1CN1CCN(c2ccc(F)cc2)CC1
EC50 [10]: > 112 µM (not active)
AC50 [9]: 7.46 µM (active)
EC50 [11]: > 112 µM (not active)

O=C1CC(=C(c2ccccc2)c2ccccc2)C(=O)N1CCCCN1CCN(c2ccccc2)CC1
CC50 [5]: > 40 µM (active)
